Measurements taken from patent publication US6489350B1, “Methods for treating neuropathic pain using heteroarylmethanesulfonamides” (Elan Pharmaceuticals, Inc., priority 1999, dated 2002).
Entries after “also recorded” stand apart in the source; their conditions may differ.

Columns and labels:
[1] = test system: Rats with Streptozotocin (STZ)-Induced Diabetes Mellitus and Consequent Diabetic Neuropathy; assay: Paw withdrawal force (mechanical hyperalgesia) in rats with streptozotocin-induced diabetes; assay type: in vivo, Male Wistar rats; conditions: for Paw withdrawal threshold force, Week 1 Mean: Week 1, before drug treatment (baseline); for Paw withdrawal threshold force, Week 2 Mean: Week 2, before drug treatment (baseline); for Paw withdrawal threshold force, Week 3 Mean: Week 3, before drug treatment (baseline); for Paw withdrawal threshold force, Week 4 Mean: Week 4, before drug treatment (baseline)
Method: Male Wistar rats (250-300 g), following an overnight fast, were made diabetic with 55 mg/kg i.p. streptozotocin (Sigma, St. Louis, Mo., USA). Tail ven blood was sampled 48 h later and glucose estimated by reflectance photometry (Reflocheck, Boehringer Mannheim). All STZ-treated rats had blood glucose >15 mmol/l and were included in the study. Animals were housed in boxes of three or four and maintained with food and water ad libitum for up to 6 weeks. non-diabetic control rats were housed in identical conditions. Each week (Friday) paw—pressure latency was measured as described immediately below.
A force was applied at a constant rate with a cone-shaped piston to the upper surface of the rat hindpaw until paw withdrawal; the force triggering withdrawal is measured as the “paw withdrawal force”. An arbitrary cut-off force of 240 g was adopted to preclude traumatic damage. Rats are trained such that latency is measured weekly, on Fridays.
At the start of week 5, drug treatments as defined for each of the groups set out below were commenced, such that 5 treatments preceded paw pressure testing. The injections and pressure test were timed so that, for each rat, the pressure test was made between 30 and 35 min after injection.
Monday of week 1 the rats were injected with streptozotocin and blood glucose determinations were made Wednesday of that week, on the Friday the 1st paw pressure test was performed. In weeks 2, 3, and 4 only paw pressure tests were performed on each of the Fridays. In week 5 treatments of groups C, D and E were begun with either zonisarnide (Groups C and D) or MK-801 (Group E) and paw pressure tests were performed on all groups on Friday.
Group B was given a single dose of zonisamide at 50 mg/kg on the Friday of week 6 and paw withdrawal force measured 30 min later.
Group D was maintained without treatment for week 6 (drug “washout”) and measured again on the Friday of week 6.
Data are means with standard deviations. Zonisamide was given once daily (p.o.) between 08:30 and 09:00 for 5 days during Week 5. MK-801 was given at 0.1 mg/kg i.p. twice daily (morning and evening). All measurements were made on Fridays between 10:30 and 13:30 hr. In Week 6, the designated “diabetic untreated” group (Group B) was given a single p.o. dose of 50 mg/kg zonisamide 2-3 h before measurement. For Week 6, drug treatment was withdrawn from Group D (last dose on Friday of week 5).

[2] = test system: formalin-induced hyperalgesia in rats; assay: Formalin test model in rats (paw flinches); assay type: in vivo, rat
Method: The formalin test model in rats was conducted based on the protocol developed and reported by Malmberg A. B. and Yaksh T. L. (1992) as an animal model of hyperalgesia.
The formalin pain test produces an “early” pain that rapidly rises and falls in intensity during the first five minutes after the injection, followed by a “late” pain, which begins about 15 minutes after the injection and persists for about an hour. It has been observed that this formalin-induced pain continues even after the nerves carrying pain signals have been blocked which implies that long-lasting pain is determined not only by sensory stimulation during the discomfort but also by brain processes that persist without continual priming.
Eight (8) animals received 100 mg/kg zonisamide via oral (gastric lavage tube) administration, and eight (8) animals received sterile water as a vehicle. On the morning of testing, a small metal band (0.5 g) was loosely placed around the right hind paw. After 1 hour, the rat was placed in a cylindrical plexiglass changer for adaptation. After one additional hour, the rat was then placed in a similar cylindrical chamber that was placed on the sensing pad of an automated formalin device that senses the movement of the metal band in the space above the area above the pad. The formalin test involved injecting 50 μl of 5% formalin into the dorsal surface of the right hindpaw. […] These flinches were counted automatically and continuously over the following one-hour interval. At one hour the animal was removed and sacrificed by carbon dioxide inhalation.
The results of the tests are presented in FIGS. 2A as summations at 5-minute intervals, and in 2B broken down into phase responses. (Phase I being the “early” pain response to the formalin injection and phase II, IIA and IIB being “late” phase parts of the facilitated response state discussed above and in the Detailed Description).

[3] = test system: formalin-evoked behavior in diabetic rats; conditions: 50 mg/kg i.p. 30 min pre-test; 5.0% formalin; both control and diabetic rats; cited from earlier work
[4] = Group E diabetic, MK-801 0.1 mg/kg group
[5] = 100 mg/kg orally prior to 5% formalin injection, vs water vehicle
[6] = Group C diabetic, zonisamide 20 mg/kg group
[7] = Group D diabetic, zonisamide 50 mg/kg group

C[C@]12N[C@H](Cc3ccccc31)c1ccccc12 [MK-801, dizocilpine]
Paw withdrawal threshold force, Week 1 Mean [1, 4]: 214.9 g
Paw withdrawal threshold force, Week 2 Mean [1, 4]: 207.1 g
Paw withdrawal threshold force, Week 3 Mean [1, 4]: 200.0 g
Paw withdrawal threshold force, Week 4 Mean [1, 4]: 191.4 g
Paw withdrawal threshold force, Week 5 Mean ([1]; Group E diabetic, 0.1 mg/kg i.p. twice daily for 5 days during Week 5): 221.8 g

NS(=O)(=O)Cc1noc2ccccc12 [zonisamide, 1,2-benzisoxazole-3-methanesulfonamide]
Effect on Phase I flinches [2, 5]: not significant effect
Effect on Phase II flinches [2, 5]: not significant effect
Effect on Phase IIA flinches [2, 5]: statistically significant effect; also recorded: significantly reduced
Effect on Phase IIB flinches [2, 5]: not significant effect
Behavioral deficits ([2]; 100 mg/kg orally, rats): No behavioral deficits were noted
Effect on hyperalgesia (change in paw withdrawal force) ([1]; 20 mg/kg p.o. for 5 days, reduction in tolerated force still present and significant (p<0.0002)): attenuated this hyperalgesia
Effect on hyperalgesia (change in paw withdrawal force) ([1]; 50 mg/kg p.o. daily for 5 days, p=0.703, paired t-test): obliterated the change in paw withdrawal force; also recorded: increase in force necessary to evoke a hyperalgesic pain response
Activity against mechanical hyperalgesia (conclusion) ([1]; 4-5 weeks of STZ diabetes in rats, dose related): active against the mechanical hyperalgesia
Paw withdrawal threshold force, Week 6 Mean ([1]; Group B, previously untreated diabetic rats, single p.o. dose of 50 mg/kg in Week 6): 213.6 g
Paw withdrawal threshold force, Week 1 Mean [1, 6]: 212.2 g
Paw withdrawal threshold force, Week 2 Mean [1, 6]: 206.4 g
Paw withdrawal threshold force, Week 3 Mean [1, 6]: 199.6 g
Paw withdrawal threshold force, Week 4 Mean [1, 6]: 190.0 g
Paw withdrawal threshold force, Week 5 Mean ([1]; Group C diabetic, 20 mg/kg p.o. once daily for 5 days during Week 5): 195.0 g
Paw withdrawal threshold force, Week 1 Mean [1, 7]: 212.72 g
Paw withdrawal threshold force, Week 2 Mean [1, 7]: 208.9 g
Paw withdrawal threshold force, Week 3 Mean [1, 7]: 200.7 g
Paw withdrawal threshold force, Week 4 Mean [1, 7]: 191.5 g
Paw withdrawal threshold force, Week 5 Mean ([1]; Group D diabetic, 50 mg/kg p.o. once daily for 5 days during Week 5): 214.9 g
Paw withdrawal threshold force, Week 6 Mean ([1]; Group D diabetic, Week 6, drug washout, last 50 mg/kg dose on Friday of week 5): 186.2 g
Effect of withdrawal and washout of the drug on hyperalgesia ([1]; one week after treatment with 50 mg/kg for 5 days, p<0.002, 50 mg/kg): return of the hyperalgesia; also recorded: force required to cause a paw withdrawal reaction was reduced
Effect on mechanical hyperalgesia after a single dose ([1]; previously untreated diabetic rats, single 50 mg/kg dose, p<<0.0001, 50 mg/kg): obliterated the mechanical hyperalgesia; also recorded: increase in force necessary to evoke a hyperalgesic pain response

NCC1(CC(=O)O)CCCCC1 [Gabapentin, 1-(aminomethyl)cyclohexaneacetic acid]
Flinching during phases 1 and 2 of the formalin test [3]: suppressed flinching
